Results: PubChem BioAssay AID489032 (Sanford-Burnham Center for Chemical Genomics, 2010)
Active and inactive are the calls of the source. The rule behind the calls is not given here.

system: UPR adaptive arm reporter cells, luciferase luminescence; assay: activators of adaptive UPR signalling, dose response, cell-based, luciferase luminescence (AID 489032)

SMILES | EC50
Fc1ccc(Nc2nc(NCc3ccco3)c3ccccc3n2)cc1 | > 80 µM (inactive)
CCOc1ccc(NC(=S)NC(=O)/C=C/c2ccc(C)cc2)c([N+](=O)[O-])c1 | > 80 µM (inactive)
COc1ccc(-c2ccc3c(c2)S(=O)(=O)c2cccc(C(=O)NCCOc4ccccc4Cl)c2C3=O)cc1OC | > 80 µM (inactive)
NCCc1c(-c2ccccc2)n(-c2ccccc2)c2ccccc12 | > 80 µM (inactive)
O=C1NC(=O)N(Cc2ccc(F)cc2)C(=O)/C1=C/c1cccs1 | > 80 µM (inactive)
COc1ccc(Br)cc1-c1nc2c(c(=O)[nH]c(=O)n2Cc2ccccc2)n1C | 63.1 µM (inactive)
CCC(C)(C)C1CCC2(CC1)NC(=O)N(CC(=O)N1CCN(S(=O)(=O)c3cc(C)ccc3C)CC1)C2=O (centres undefined) | 27.2 µM (inactive)
Nc1nc(SCc2ccc(Cl)cc2Cl)nc2nc3c(cc12)CCCC3 | > 80 µM (inactive)
CN(C)C(=O)CCc1ccc2c3c([nH]c2c1)[C@]1(CCc2ccccc2)[C@@H](C(=O)N2CCCCC2)C[C@H](CC(=O)NCCC2=CCCCC2)C(=O)N1CC3 | 35.9 µM (inactive)
C#CCn1c(=NC(=O)c2ccc(Cl)s2)sc2cccc(OC)c21 | > 80 µM (inactive)
CCOc1ccc(/C=C/C(O)=C2/C(=O)NC3(C)CC2c2ccccc2O3)cc1OC (centres undefined) | > 80 µM (inactive)
CCCCN1C(=O)/C(=C2/Sc3ccc(OC)cc3N2CC)SC1=S | > 80 µM (inactive)
Cc1ccc(NC(=O)c2cc(S(=O)(=O)N(C)C)ccc2N2CCCC2)cc1S(=O)(=O)N(C)C | 32.1 µM (inactive)
Nc1nc(-c2cc(O)ccc2[N+](=O)[O-])cc(-c2ccccc2)c1[N+](=O)[O-] | 8.27 µM
CCOc1ccccc1-n1c(SCC(=O)Nc2ccc(CC)cc2)nc2n[nH]c(C)c2c1=N | 5.91 µM
COc1ccc(-c2sc3ccccc3c2-c2ccc(OCCN(C)C)cc2)cc1 | > 80 µM (inactive)
Cc1cc(NC(=O)c2cc(-c3ccncc3)nc3ccccc23)ccc1Br | 27.8 µM (inactive)
Cc1ccc2nc(NC(=O)c3ccc(-c4nc5ccccc5s4)s3)sc2c1 | > 80 µM (inactive)
O=Cc1cc2ccccc2nc1SCc1ccc(Cl)cc1 | 40.2 µM (inactive)
Cc1cccn2c(=O)c3cc(C(=O)NC4CCCCCC4)sc3nc12 | > 80 µM (inactive)
CCc1ccc(NC(=O)C(CC)Sc2nc3cc4c(cc3c(=O)n2Cc2ccco2)OCO4)cc1 (centres undefined) | > 80 µM (inactive)
COc1cccc(C(=O)Oc2cc3c4c(c2)C(C)=CC(C)(C)N4C(=O)C3=O)c1 | 19.6 µM
Cc1ccc2nc(/C(C#N)=C/c3ccc(O)c(O)c3)[nH]c2c1 | > 80 µM (inactive)

SMILES | EC50
N#C/C(=C/c1ccc(N2CCCC2)c([N+](=O)[O-])c1)c1nc2ccccc2[nH]1 | > 80 µM (inactive)
Cc1ccc2c(c1)C(=O)C(=O)N2Cc1ccc(Cl)cc1 | 57.2 µM (inactive)
CCC1CCc2c(sc3nc(SCC(=O)NCc4ccco4)n(-c4ccccc4)c(=O)c23)C1 (centres undefined) | > 80 µM (inactive)
CCOC(=O)c1c(NC(=O)c2cc3n(n2)C(C(F)(F)F)CC(c2cccs2)N3)sc(C)c1C (centres undefined) | 15.9 µM
Clc1ccc2c(c1)C(N1CCNCC1)Cc1ccccc1S2 (centres undefined) | > 80 µM (inactive)
CCCCNc1c(-c2ccc(SC(C)CC)cc2)nc2cnccn12 (centres undefined) | > 80 µM (inactive)
CCC1(c2ccc(F)cc2)NC(=O)N(CC(=O)Nc2ccc(-c3nc4ccc(C)cc4s3)cc2)C1=O (centres undefined) | > 80 µM (inactive)
O=C1Nc2ccccc2/C1=C/c1ccc([N+](=O)[O-])cc1 | > 80 µM (inactive)
COc1ccc2cc1Oc1ccc(cc1)C[C@H]1c3c(cc(OC)c4c3Oc3c(ccc5c3[C@H](C2)N(C)CC5)O4)CCN1C | > 80 µM (inactive)
CCOC(=O)Cc1csc(/N=C/c2c(O)n(-c3ccc(C)c(C)c3)c(=O)c3ccccc23)n1 | > 80 µM (inactive)
C=CCn1c(O)c(C2=c3ccccc3=NC2=O)sc1=Nc1ccc(O)cc1 | 38.7 µM (inactive)
Cc1ccc(NC(=O)CSc2nc3ccccc3c3nc4ccccc4n23)cc1 | 7.77 µM
Cc1ccc(-c2[nH]ncc2/C=N/n2c(COc3ccccc3)nc3ccccc3c2=O)cc1 | > 80 µM (inactive)
CCOc1cc(/C=N\Nc2ccc([N+](=O)[O-])cc2)ccc1OCC(=O)Nc1ccc(C)c(C)c1 | 43.2 µM (inactive)
COc1cc(/C=C2/C(=N)N3C=CSC3=NC2=O)ccc1OCCCOc1cc(C)ccc1C | > 80 µM (inactive)
Oc1ccc(CN2CCC(Cc3ccccc3)CC2)c2cccnc12 | > 80 µM (inactive)
CCCNC(=O)c1ccc2c(=O)c(O)c(-c3ccc(OC)cc3)[nH]c2c1 | > 80 µM (inactive)
Cc1cccnc1Nc1nc(-c2ccc(O)c(O)c2)cs1 | > 80 µM (inactive)
COc1ccc(NC(=O)c2sc3nc(N4CCOCC4)c4c(c3c2N)CC(C)(C)OC4)c(OC)c1 | > 80 µM (inactive)
CN(C)S(=O)(=O)c1ccc(N2CCCC2)c(C(=O)Nc2nccs2)c1 | 50 µM (inactive)
O=c1cc(CN2CCN(c3ccc(F)cc3)CC2)c2cc3c(cc2o1)CCCC3 | 17.6 µM
COc1cc([N+](=O)[O-])cc(/C=N/NC(=O)c2ccc(NC(=O)c3ccc(C)cc3)cc2)c1O | > 80 µM (inactive)
C=C(C)[C@@]12OC3(c4ccccc4)O[C@@H]1C1[C@@H]4O[C@]4(CO)[C@@H](O)[C@]4(O)C(=O)C(C)=C[C@H]4[C@@]1(O3)[C@H](C)[C@H]2OC(=O)/C=C/C=C/c1ccccc1 (some centres undefined) | 39.1 µM (inactive)

SMILES | EC50
CCC(=O)Nc1cccc(C(=O)/C=C/c2ccc(F)cc2)c1 | > 80 µM (inactive)
CCOC(=S)SCC(=O)Nc1nc(-c2ccc(Br)cc2)cs1 | > 80 µM (inactive)
CCOC(=O)N1CCN(S(=O)(=O)c2ccc(C(=O)Nc3nc4c(s3)CC(C)CC4)cc2)CC1 (centres undefined) | > 80 µM (inactive)
CC1CCCCC1N1CN=C(Nc2nc3ccccc3s2)NC1 (centres undefined) | > 80 µM (inactive)
C/C(=N\Nc1ncnc2sc(C)c(C)c12)c1ccccn1 | > 80 µM (inactive)
CN1/C(=C\C(=O)COC(=O)c2ccc(O)c(O)c2)C(C)(C)c2ccccc21 | > 80 µM (inactive)
OC(CNCC1CCCO1)Cn1c2ccc(Cl)cc2c2cc(Cl)ccc21 (centres undefined) | > 80 µM (inactive)
CCCCN(CC)S(=O)(=O)c1ccc(C(=O)N(CCCN(C)C)c2nc3cc(C)cc(C)c3s2)cc1 | > 80 µM (inactive)
Cc1ccc(-n2c(O)c(/C=N/c3ncc(Br)cc3Br)c(=O)[nH]c2=O)cc1 | 26.8 µM (inactive)
Oc1ccc(/C=N/Nc2cc(N3CCOCC3)nc(N3CCOCC3)n2)cc1O | > 80 µM (inactive)
CC(C)N=C(NS(=O)(=O)c1ccccc1)C(Cl)(Cl)Cl | > 80 µM (inactive)
COc1ccc(-c2csc3nc(-c4ccc(C)cc4)oc(=O)c23)cc1OC | > 80 µM (inactive)
COc1ccc2[nH]c3nc(SCc4nnc(-c5ccc(C)cc5)o4)nnc3c2c1 | 27.8 µM (inactive)
Cc1cnc(NC(=O)c2cc3c(C)nn(Cc4ccccc4Cl)c3s2)s1 | > 80 µM (inactive)
Cn1nc(C(F)(F)F)c(/C=N/OC(=O)c2ccccc2)c1SCc1ccccc1Cl | 10.3 µM
Cc1nn(Cc2c(Cl)cccc2Cl)c(C)c1NC(=O)c1cn(-c2ccccc2)nc1-c1ccccc1 | > 80 µM (inactive)
Nc1nc(Nc2cccc(C(F)(F)F)c2)nc(C(F)(F)F)n1 | 56.6 µM (inactive)
Cn1nnnc1Sc1ncnc2scc(-c3ccc(Br)cc3)c12 | > 80 µM (inactive)
COc1ccc(Cn2c(SCc3ccccc3C)nc3cc(OC)c(OC)cc3c2=N)cc1 | 15.5 µM
O=C(NCC1CCCO1)c1nn2c(C(F)(F)F)cc(-c3cc(Br)cs3)nc2c1Br (centres undefined) | > 80 µM (inactive)
Cc1ccc2oc(C(Cl)(Cl)Cl)cc(=O)c2c1 | 28.3 µM (inactive)
NS(=O)(=O)c1ccc(NC(=O)COC(=O)c2cn(-c3ccccc3)nc2-c2ccc(F)cc2)cc1 | > 80 µM (inactive)
COc1cc(NC(=O)c2ccc(C)cc2C)ccc1NC(=O)c1cc2ccccc2o1 | > 80 µM (inactive)

SMILES | EC50
COc1ccc(OCc2n(CC(=O)OC3CC(C)CCC3C(C)C)c3ccccc3[n+]2C)cc1 (centres undefined) | > 80 µM (inactive)
Cc1ccc(C(=O)C(C(=O)/C=C/c2ccccc2)=C2SCCCS2)cc1 | > 80 µM (inactive)
COc1ccc2[nH]c3c(c2c1)CCN1C(=O)C(CC(=O)NC/C=C(\C)CCC=C(C)C)C[C@H](C(=O)N(C(C)C)C(C)C)[C@@]31C (some centres undefined) | 60.1 µM (inactive)
O=C(Oc1ccccc1/C=C\C(=O)c1cc2ccccc2o1)c1cccc(F)c1 | > 80 µM (inactive)
CCOc1ccc(C(=O)Nc2cc(-c3nc4ccccc4[nH]3)ccc2Cl)cc1[N+](=O)[O-] | 24.2 µM (inactive)
Cc1cc(NC(=O)/C(C#N)=C/c2ccc(-c3ccc(SC(F)F)cc3)o2)n(-c2ccccc2)n1 | > 80 µM (inactive)
CCOc1cc(/C=C2/NC(=S)NC2=O)ccc1OCc1ccc([N+](=O)[O-])cc1 | > 80 µM (inactive)
C=CCN(CC=C)S(=O)(=O)c1ccc(C(=O)Nc2nc3c(s2)CCc2ccccc2-3)cc1 | 39.9 µM (inactive)
COc1cc(NC(=O)c2ccco2)c(C(=O)OCC(=O)c2c[nH]c3ccccc23)cc1OC | > 80 µM (inactive)
Cc1ccc(NC(=O)COc2ccc(/C=C3/SC(=Nc4ccccc4)N(Cc4cccnc4)C3=O)cc2)cc1 | 34.4 µM (inactive)
Brc1ccc2c(c1)C(c1ccc(N3CCOCC3)cc1)=NNC(c1cccs1)=N2 | 26.4 µM (inactive)
COc1ccc(NC(=O)C(=O)N/N=C\c2ccc(CNC(=O)C(=O)Nc3ccc(C)c(C)c3)o2)c(OC)c1 | > 80 µM (inactive)
N#Cc1ccccc1/C=N/Nc1nc(-c2ccccc2)c2cc(Cl)ccc2n1 | > 80 µM (inactive)
CCCCC1CCC(C(=O)N(CC(C)C)c2c(N)n(CCCC)c(=O)[nH]c2=O)CC1 (centres undefined) | > 80 µM (inactive)
Oc1cccc(-c2nc3c4c(ncn3n2)-c2ccccc2CC42CCCC2)c1 | > 80 µM (inactive)
O=c1cc(C(Cl)(Cl)Cl)oc2c1ccc1ccccc12 | 18.1 µM
Cc1ccc(Nc2nc(-c3c(C)nc4ccccn34)cs2)cc1 | > 80 µM (inactive)
O=C(N/N=C/C(Br)=C\c1ccccc1)c1n[nH]c2c1CCC2 | > 80 µM (inactive)
CCN(CC)c1ccc(-c2nn3c(-c4ccccc4OC)nnc3s2)cc1 | > 80 µM (inactive)
Cc1ccc(C(=O)Cn2c(C(=O)/C=C/c3ccccc3)nc3ccccc32)cc1 | 44.8 µM (inactive)
